From US20150150851A1, “FORMULATION AND DOSING OF HSP90 INHIBITORY COMPOUNDS” (Synta Pharmaceuticals Corp., priority 2010, published 2015)
≈ marks a conversion by molar mass, not a printed value.

Test: Equilibrium solubility in polysorbate 80 / PEG 300 mixtures (72 hours, HPLC)
Assay type: physicochemical
Settings: organic solvent or mixture, thermodynamic from solid

solubility at 72 h (polysorbate 80 / PEG 300 mixture, 40% PEG 300, 60% polysorbate 80, equilibrated 72 hours): 76.1 mg/mL (≈ 209 mM)
solubility at 72 h (polysorbate 80 / PEG 300 mixture, 45% PEG 300, 55% polysorbate 80, equilibrated 72 hours): 84.7 mg/mL (≈ 232 mM)
solubility at 72 h (polysorbate 80 / PEG 300 mixture, 50% PEG 300, 50% polysorbate 80, equilibrated 72 hours): 96.2 mg/mL (≈ 264 mM)
solubility at 72 h (polysorbate 80 / PEG 300 mixtures, in all three polysorbate 80 / PEG 300 solutions): > 75 mg/mL
SMILES: CC(C)c1cc(-c2n[nH]c(=O)n2-c2ccc3c(ccn3C)c2)c(O)cc1O [Compound 1, 3-(2,4-dihydroxy-5-isopropyl-phenyl)-4-(1-methyl-indol-5-yl)-5-hydroxy-[1,2,4] triazole]
